Reference: patent publication US20100272680A1, “Piperidinyl Cyclic Amido Antiviral Agents” (priority 2009, published 2010)

Assays:
[1] = test system: HCV Genotype 1B Replicon; experiment: Replicon assay, genotype 1b subgenomic replicon (ET cell line), luciferase readout; type: cell-based; conditions: Hepatitis C virus, 48 h, Table 3; luciferase activity after 48 hours
Method: (§1) Compounds were assayed for activity against HCV using the genotype 1a and 1b subgenomic replicon model systems. Stable cell lines bearing the genotype 1a and 1b replicons were used for screening of compounds. Both replicons are bicistonic and contain the firefly luciferase gene. The ET cell line is stably transfected with RNA transcripts harboring a I389luc-ubi-neo/NS3-3′/ET replicon with firefly luciferase-ubiquitin-neomycin phosphotransferase fusion protein and EMCV-IRES driven NS3-5B polyprotein containing the cell culture adaptive mutations (E1202G; T12801; K1846T) (Krieger at al, 2001 and unpublished). The genotype 1a replicon is a stable cell line licensed from Apath LLC, modified to contain the firefly luciferase gene. The cells were grown in DMEM, supplemented with 10% fetal calf serum, 2 mM Glutamine, Penicillin (100 IU/mL)/Streptomycin (100 μg/mL), 1× nonessential amino acids, and 250-500 μg/mL G418 (“Geneticin”). They were all available through Life Technologies (Bethesda, Md.). The cells were plated at 0.5×10^4 cells/well in 384 well plates containing compounds. The final concentration of compounds ranged between 0.03 μM to 50 μm and the final DMSO concentration of 0.5-1%.
(§2) Luciferase activity was measured 48 hours later by adding a Steady glo (Promega, Madison, Wis.). Percent inhibition of replication data was plotted relative to no compound control. Under the same condition, cytotoxicity of the compounds was determined using cell titer glo (Promega, Madison, Wis). IC50s were determined from a 10 point dose response curve using 3-4-fold serial dilution for each compound, which spans a concentration range >1000 fold. BioAssay determines the level of inhibition for each compound by normalizing cross-talk corrected plate values against the negative […] controls to determine Percent Inhibition:
(§3) These normalized values are exported to EC50 where they are plotted against the molar compound concentrations using the standard four parameter logistic equation: […]
(§4) Some EC50 measurements were repeated a second time and for both 1A and 1B genotypes after those reported in Table 2 for compounds 101-108 and the repeated data was reported in Table 3.

[2] = test system: HCV Genotype 1A Replicon; experiment: Replicon assay, genotype 1a subgenomic replicon, luciferase readout; type: cell-based; conditions: Hepatitis C virus, 48 h, Table 3; luciferase activity after 48 hours
Method: as §1, §2, §3, §4

Structure (SMILES)	EC50 [1] [nM]	EC50 [2] [nM]
CCc1cc(C(F)(F)F)c2nc(C(=O)N3CCC(N4CCOC4=O)CC3)c(Cl)n2c1 [Compound 152, 3-(1-{[3-chloro-6-ethyl-8-(trifluoromethyl)imidazo[1,2-a]pyridin-2-yl]carbonyl}-4-piperidinyl)-1,3-oxazolidin-2-one]	70	50
O=C(c1nc2c(C(F)(F)F)cc(-c3ccoc3)cn2c1Cl)N1CCC(N2C(=O)CCC2=O)CC1 [Compound 168, 1-(1-{[3-chloro-6-(3-furanyl)-8-(trifluoromethyl)imidazo[1,2-a]pyridin-2-yl]carbonyl}-4-piperidinyl)-2,5-pyrrolidinedione]	70	100
O=C(c1nc2c(C(F)(F)F)cc(-c3cccc4cccnc34)cn2c1Cl)N1CCC(N2CCOC2=O)CC1 [Compound 120]	36000	290
C[C@@H]1OC(=O)N(C2CCN(C(=O)c3nc4c(C(F)(F)F)cc(-c5ccoc5)cn4c3Cl)CC2)C1=O [Compound 188, (5S)-3-(1-{[3-chloro-6-(3-furanyl)-8-(trifluoromethyl)imidazo[1,2-a]pyridin-2-yl]carbonyl}-4-piperidinyl)-5-methyl-1,3-oxazolidine-2,4-dione]	60	190
CC1(C)CN(C(=O)c2nc3c(C(F)(F)F)cc(-c4ccoc4)cn3c2Cl)CCC1N1CCOC1=O (stereo not shown) [Compound 204, 3-(1-{[3-chloro-6-(3-furanyl)-8-(trifluoromethyl)imidazo[1,2-a]pyridin-2-yl]carbonyl}-3,3-dimethyl-4-piperidinyl)-1,3-oxazolidin-2-one]	300	40
O=C(c1nc2c(C(F)(F)F)cc(-c3cn[nH]c3)cn2c1Cl)N1CCC(N2C(=O)COC2=O)CC1 [Compound 179, 3-(1-{[3-chloro-6-(1H-pyrazol-4-yl)-8-(trifluoromethyl)imidazo[1,2-a]pyridin-2-yl]carbonyl}-4-piperidinyl)-1,3-oxazolidine-2,4-dione]	360	60
C[C@@H]1OC(=O)N(C2CCN(C(=O)c3nc4c(C(F)(F)F)cc(Br)cn4c3Cl)CC2)C1=O [Compound 190, (5S)-3-(1-{[6-bromo-3-chloro-8-(trifluoromethyl)imidazo[1,2-a]pyridin-2-yl]carbonyl}-4-piperidinyl)-5-methyl-1,3-oxazolidine-2,4-dione]	70	1500
CCOc1cc(C(F)(F)F)c2nc(C(=O)N3CCC(N4CCOC4=O)CC3)c(Cl)n2c1 [Compound 135, 3-(1-{[3-chloro-6-(ethyloxy)-8-(trifluoromethyl)imidazo[1,2-a]pyridin-2-yl]carbonyl}-4-piperidinyl)-1,3-oxazolidin-2-one]	220	70
CC(C)Cc1cc(C(F)(F)F)c2nc(C(=O)N3CC[C@H](N4CCOC4=O)[C@@H](O)C3)c(Cl)n2c1 (racemic) [Compound 215, (±) trans-3-(1-{[3-chloro-6-(2-methylpropyl)-8-(trifluoromethyl)imidazo[1,2-a]pyridin-2-yl]carbonyl}-3-hydroxy-4-piperidinyl)-1,3-oxazolidin-2-one]	350	90
O=C(c1nc2c(C(F)(F)F)cc(Cl)cn2c1Cl)N1CCC(N2CCOC2=O)CC1 [Compound 112, 3-(1-{[3,6-dichloro-8-(trifluoromethyl)imidazo[1,2-a]pyridin-2-yl]carbonyl)-4-piperidinyl)-1,3-oxazolidin-2-one]	170	130
CC(C)c1c(C(=O)N2CCC(N3CCOC3=O)CC2)nc2c(C(F)(F)F)cc(-c3ccoc3)cn12 [Compound 165, 3-(1-{[6-(3-furanyl)-3-(1-methylethyl)-8-(trifluoromethyl)imidazo[1,2-a]pyridin-2-yl]carbonyl}-4-piperidinyl)-1,3-oxazolidin-2-one]	≥ 5010	≥ 5010
O=C(c1nc2c(C(F)(F)F)cc(C3CC3)cn2c1Cl)N1CCC(N2CCCC2=O)CC1 [Compound 201, 1-(1-{[3-chloro-6-cyclopropyl-8-(trifluoromethyl)imidazo[1,2-a]pyridin-2-yl]carbonyl}-4-piperidinyl)-2-pyrrolidinone]	30	100
O=C(c1nc2c(C(F)(F)F)cc(C3CC3)cn2c1Cl)N1CC[C@H](N2CCCC2=O)[C@@H](O)C1 (racemic) [Compound 225, (±) trans-1-(1-{[3-chloro-6-cyclopropyl-8-(trifluoromethyl)imidazo[1,2-a]pyridin-2-yl]carbonyl}-3-hydroxy-4-piperidinyl)-2-pyrrolidinone]	150	480
COc1cccc(-c2cc(C(F)(F)F)c3nc(C(=O)N4CCC(N5CCOC5=O)CC4)c(Cl)n3c2)c1 [Compound 117]	2540	470
CCn1cc(-c2cc(C(F)(F)F)c3nc(C(=O)N4CCC(N5CCOC5=O)CC4)c(Cl)n3c2)cn1 [Compound 125]	13300	90
O=C(c1nc2c(C(F)(F)F)cc(Br)cn2c1Cl)N1CC[C@H](N2CCOC2=O)[C@@H](O)C1 (racemic) [Compound 219, (±) trans-3-(1-{[6-bromo-3-chloro-8-(trifluoromethyl)imidazo[1,2-a]pyridin-2-yl]carbonyl}-3-hydroxy-4-piperidinyl)-1,3-oxazolidin-2-one]	580	150
O=C(c1nc2c(C(F)(F)F)cc(C3CCCO3)cn2c1Cl)N1CCC(N2CCOC2=O)CC1 (stereo not shown) [Compound 134, 3-(1-{[3-chloro-6-(tetrahydro-2-furanyl)-8-(trifluoromethyl)imidazo[1,2-a]pyridin-2-yl]carbonyl}-4-piperidinyl)-1,3-oxazolidin-2-one]	2190	320
C=Cc1cc(C(F)(F)F)c2nc(C(=O)N3CCC(N4CCOC4=O)CC3)c(Cl)n2c1 [Compound 153, 3-(1-{[3-chloro-6-ethenyl-8-(trifluoromethyl)imidazo[1,2-a]pyridin-2-yl]carbonyl}-4-piperidinyl)-1,3-oxazolidin-2-one]	70	80
N#Cc1c(C(=O)N2CCC(N3C(=O)COC3=O)CC2)nc2c(C(F)(F)F)cc(-c3ccoc3)cn12 [Compound 161, 2-{[4-(2,4-dioxo-1,3-oxazolidin-3-yl)-1-piperidinyl]carbonyl}-6-(3-furanyl)-8-(trifluoromethyl)imidazo[1,2-a]pyridine-3-carbonitrile]	30	30
O=C(c1nc2c(C(F)(F)F)cccn2c1Cl)N1CCC(N2CCCC2=O)CC1 [Compound 109, 1-(1-{[3-chloro-8-(trifluoromethyl)imidazo[1,2-a]pyridin-2-yl]carbonyl}-4-piperidinyl)-2-pyrrolidinone]	28200	38000
O=C(c1nc2c(C(F)(F)F)cc(-c3ccoc3)cn2c1Cl)N1CCC(n2ccoc2=O)CC1 [Compound 186, 3-(1-{[3-chloro-6-(3-furanyl)-8-(trifluoromethyl)imidazo[1,2-a]pyridin-2-yl]carbonyl}-4-piperidinyl)-1,3-oxazol-2(3H)-one]	20	10
O=C(c1nc2c(C(F)(F)F)cc(I)cn2c1Br)N1CCC(N2CCOC2=O)CC1 [Compound 194, 3-(1-{[3-bromo-6-iodo-8-(trifluoromethyl)imidazo[1,2-a]pyridin-2-yl]carbonyl}-4-piperidinyl)-1,3-oxazolidin-2-one]	30	30
O=C(c1nc2c(C(F)(F)F)cc(-c3cn[nH]c3)cn2c1Cl)N1CCC(N2C(=O)CCC2=O)CC1 [Compound 167, 1-(1-{[3-chloro-6-(1H-pyrazol-4-yl)-8-(trifluoromethyl)imidazo[1,2-a]pyridin-2-yl]carbonyl}-4-piperidinyl)-2,5-pyrrolidinedione]	520	630
O=C(c1nc2c(C(F)(F)F)cc(-c3ccoc3)cn2c1Cl)N1CCC(N2C(=O)COC2=O)CC1 [Compound 178, 3-(1-{[3-chloro-6-(3-furanyl)-8-(trifluoromethyl)imidazo[1,2-a]pyridin-2-yl]carbonyl}-4-piperidinyl)-1,3-oxazolidine-2,4-dione]	30	20
O=C(c1nc2c(C(F)(F)F)cc(C3CC3)cn2c1Cl)N1CC[C@H](N2CCOC2=O)[C@H](O)C1 (single isomer, unassigned; enantiomer 1) [Compound 234, 3-((cis)-1-{[3-chloro-6-cyclopropyl-8-(trifluoromethyl)imidazo[1,2-a]pyridin-2-yl]carbonyl}-3-hydroxy-4-piperidinyl)-1,3-oxazolidin-2-one (Enantiomer 1)]	50	
